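Growth conditions: 96-well plates. Treatment: test compound, 48 hours, 5 concentrations. Analysis: linear interpolation between bracketing concentrations; unreached endpoints set to highest concentration. GI50 is the concentration that inhibits growth by half.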 Calls of active or inactive are those of the source. No stated cut-off is given here; in the data, active = GI50 up to about 1.1 µM and inactive = higher.

This note sets out measurements from ChEMBL document CHEMBL1201862, “PubChem BioAssay data set” (2004).

Common to all, as to assay: inhibition of tumour cell growth, NCI panel, 48 h
Experiment [1] deals with MDA-MB-435.
Experiment [2] has as its system HT-29.
Experiment [3] concerns SK-MEL-2.
For experiment [4], the system named is SK-OV-3.
Experiment [5] concerns SF-295.
The subject of experiment [6] is EKVX.
The subject of experiment [7] is A549.
Experiment [8] deals with OVCAR-8.
Experiment [9] relates to UO-31.
For experiment [10], the system named is U-251.
Experiment [11] deals with Malme-3M.
The test system of experiment [12] is NCI-H226.
For experiment [13], the system named is PC-3.
In experiment [14] the test system is HCT-15.
Experiment [15] deals with NCI-H522.
Experiment [16] deals with K562.
The subject of experiment [17] is HL-60.
For experiment [18], the system named is LOX IMVI.
Experiment [19] relates to Hs-578T.
Experiment [20] concerns OVCAR-4.

On to `O=C(O)CCC(=O)Nc1ccc2ccccc2c1`, for which the GI50 in experiment [1], in experiment [2], in experiment [3], in [4], in experiment [5] and in experiment [6] was > 100 µM (inactive) throughout. Moreover, the GI50 in experiment [7], in experiment [8], in experiment [9], in experiment [10], in experiment [11] and in experiment [12] was > 100 µM (inactive) in each case. In addition, the GI50 in experiment [13] was > 100 µM (inactive); in experiment [14], over 100 µM; in experiment [15], > 100 µM (inactive); in [16] it was > 100 µM (inactive); in [17] it was > 100 µM (inactive); in experiment [18], > 100 µM (inactive). For the same compound, the GI50 in experiment [19] and in [20] was > 100 µM (inactive) each time.
Regarding `Brc1ccc2[nH]cc(-c3nc(-c4c[nH]c5ccccc45)cs3)c2c1`, the GI50 is 3.88 µM (inactive) in experiment [1]; 1.85 µM (inactive) in experiment [2]; 2.82 µM (inactive) in experiment [3]; 8.13 µM (inactive) in experiment [4]; 2.84 µM (inactive) in experiment [5]; 2.46 µM (inactive) in experiment [6]. For the same compound, the GI50 in experiment [7] was 3.24 µM (inactive); in experiment [8], 4.27 µM (inactive); in experiment [9], 2.97 µM (inactive); in experiment [10] it was 3.01 µM (inactive); in experiment [11], 3.17 µM (inactive); in experiment [12], 2.59 µM (inactive). Further, the GI50 is 3.11 µM (inactive) in [13]; 2.39 µM in experiment [14]; 1.91 µM (inactive) in experiment [15]; 2.95 µM (inactive) in experiment [16]; 3.37 µM (inactive) in [17]; 1.93 µM (inactive) in [18]. The values for the GI50 in [19] and in experiment [20] were 5.86 µM (inactive) and 6.03 µM (inactive), respectively.
Turning to `COc1cc2ccc1OCc1cccc(n1)COc1ccc(cc1OC)/C=N\c1ccc(cc1)-c1ccc(cc1)/N=C\2`, the GI50 in experiment [1], in experiment [2], in experiment [3], in experiment [4], in experiment [5] and in experiment [6] was > 100 µM (inactive) each time. In addition, the GI50 in [7], in experiment [8], in experiment [9], in [10], in experiment [11] and in [12] was > 100 µM (inactive) each time. In addition, the GI50 in experiment [13] is > 100 µM (inactive); in experiment [14] it was over 100 µM; in experiment [15] it was > 100 µM (inactive); in experiment [16], > 100 µM (inactive); in [17] it was > 100 µM (inactive); in [18], > 100 µM (inactive). The GI50 in [19] and in experiment [20] was > 100 µM (inactive) in each case.
As for `C=C1C(=O)O[C@H]2[C@H](OC(C)=O)[C@@H](C)CCC/C(C)=C/CC[C@@]3(C)O[C@@H]3C[C@@H]12`, the GI50 in experiment [1] is 3.24 µM (inactive); in experiment [2], 2.94 µM (inactive); in experiment [3], 6.01 µM (inactive); in experiment [4] it was 15.6 µM (inactive); in [5], 13.2 µM (inactive); in [6], 3.42 µM (inactive). Further, the GI50 was 7.35 µM (inactive) in experiment [7]; 0.885 µM (active) in [8]; 2.9 µM (inactive) in [9]; 6.34 µM (inactive) in experiment [10]; 16 µM (inactive) in experiment [11]; 1.5 µM (inactive) in experiment [12]. The GI50 in experiment [13] is 5.25 µM (inactive); in experiment [14], 2.31 µM; in experiment [15], 1.78 µM (inactive); in [16], 3.03 µM (inactive); in experiment [17] it was 0.398 µM (active); in experiment [18], 1.86 µM (inactive). Besides, the results for the GI50 in [19] and in experiment [20] were 3.32 µM (inactive) and 3.55 µM (inactive), respectively.
For the compound `O=c1c2sc(=S)n(-c3ccc(F)cc3)c2ncn1/N=C/c1ccc(F)cc1F`, the GI50 in experiment [1] is 83.9 µM (inactive); in experiment [2], > 100 µM (inactive); in experiment [3] it was 25.4 µM (inactive); in experiment [4], 25.4 µM (inactive); in experiment [5] it was 21.1 µM (inactive); in experiment [6], 16.6 µM (inactive). The GI50 in experiment [7] was 46 µM (inactive); in [8], 20.1 µM (inactive); in experiment [9], 24.9 µM (inactive); in experiment [10], 23.4 µM (inactive); in experiment [11] it was 18.7 µM (inactive); in experiment [12], 24.4 µM (inactive). The GI50 in [13] is 31.6 µM (inactive); in [14] it was 88.9 µM; in experiment [15], 44.5 µM (inactive); in [16], > 100 µM (inactive); in experiment [17] it was 22.8 µM (inactive); in experiment [18], 43.6 µM (inactive). Besides, the GI50 is 29.1 µM (inactive) in experiment [19] and 18.9 µM (inactive) in experiment [20].
Regarding `Cc1cccc2c1CC1(C2)Cc2c(C)cccc2C1=O` (stereo not given), the GI50 in [1] was 24.8 µM (inactive); in experiment [2] it was 29.9 µM (inactive); in [3], 16.9 µM (inactive); in [4], 29.8 µM (inactive); in experiment [5] it was 27.9 µM (inactive); in experiment [6] it was 16 µM (inactive). Besides, the GI50 in [7] was 22.4 µM (inactive); in [8], 42.9 µM (inactive); in experiment [9] it was 23.1 µM (inactive); in experiment [10], 23.8 µM (inactive); in experiment [11], 22.7 µM (inactive); in experiment [12], 26.8 µM (inactive). For the same compound, the GI50 in experiment [13] was 31.7 µM (inactive); in experiment [14], 29 µM; in experiment [15], 17.8 µM (inactive); in [16], 26.5 µM (inactive); in experiment [17], 26.7 µM (inactive); in experiment [18], 17.5 µM (inactive). Moreover, the GI50 in experiment [19] is 37.6 µM (inactive); in experiment [20], 30.6 µM (inactive).
Take `COC(=O)[C@H](Cc1c[nH]c2ccccc12)NP(=O)(O)OC[C@H]1O[C@@H](n2cc(C)c(=O)[nH]c2=O)C[C@@H]1N=[N+]=[N-]`: the GI50 in experiment [1], in [2], in experiment [3], in experiment [4], in experiment [5] and in experiment [6] was > 100 µM (inactive) in each case. The GI50 in [7], in experiment [8], in experiment [9], in experiment [10], in [11] and in experiment [12] was > 100 µM (inactive) in each case. In addition, the GI50 in experiment [13] is > 100 µM (inactive); in [14] it was over 100 µM; in experiment [15], > 100 µM (inactive); in experiment [16], > 100 µM (inactive); in [17], > 100 µM (inactive); in experiment [18] it was > 100 µM (inactive). Further, the GI50 in [19] and in [20] was > 100 µM (inactive) in each case.
